Assays:
Type in all cases: in vivo
[1] = tested on: ivy-leaved morning glory (Ipomoea hederacea); test: Test G Pre-Emergence Protocol; conditions: Ipomoea, pre-emergence, 312 h, evaluated after 13 days; for pest or weed control at 15.625 g/ha: 15.625 g ai/ha, read-out: Morning-glory, Ivy-leaved damage rating (100=total damage to plant; 0=no damage to plant); for pest or weed control at 62.5 g/ha: 62.5 g ai/ha, 100=total damage to plant, 0=no damage to plant, read-out: plant damage rating, Morningglory, Ivy-leaved; for pest or weed control at 250 g/ha: 250 g ai/ha, read-out: Morningglory, Ivy-leaved damage rating (100=total damage to plant; 0=no damage to plant)
In short: (§1)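 Glasshouse pre-emergence test: soil-sown seeds, sprayed after 1 d at 15.625, 62.5 or 250 g/ha. Conditions 24/16° C day/night, 14 h light, 65% humidity, watering twice daily. Rating 13 d post-spray (100 = total damage).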

[2] = tested on: corn (Zea mays); test: Test G Pre-Emergence Protocol; conditions: Zea mays, pre-emergence, 312 h, evaluated after 13 days; for plant injury at 15.625 g/ha: 15.625 g ai/ha; for plant injury at 15.625 g/ha / plant injury at 250 g/ha: read-out: Corn damage rating (100=total damage to plant; 0=no damage to plant); for plant injury at 62.5 g/ha: 62.5 g ai/ha, 100=total damage to plant, 0=no damage to plant, read-out: plant damage rating, Corn; for plant injury at 250 g/ha: 250 g ai/ha
In short: as §1

[3] = tested on: redroot pigweed (Amaranthus retroflexus); test: Test G Pre-Emergence Protocol; conditions: Amaranthus retroflexus, pre-emergence, 312 h, evaluated after 13 days; for pest or weed control at 15.625 g/ha: 15.625 g ai/ha; for pest or weed control at 15.625 g/ha / pest or weed control at 250 g/ha: read-out: Pigweed, Redroot damage rating (100=total damage to plant; 0=no damage to plant); for pest or weed control at 62.5 g/ha: 62.5 g ai/ha, 100=total damage to plant, 0=no damage to plant, read-out: plant damage rating, Pigweed, Redroot; for pest or weed control at 250 g/ha: 250 g ai/ha
In short: as §1

[4] = tested on: giant foxtail (Setaria faberi); test: Test G Pre-Emergence Protocol; conditions: Setaria faberi, pre-emergence, 312 h, evaluated after 13 days; for pest or weed control at 15.625 g/ha: 15.625 g ai/ha; for pest or weed control at 15.625 g/ha / pest or weed control at 250 g/ha: read-out: Foxtail, Giant damage rating (100=total damage to plant; 0=no damage to plant); for pest or weed control at 62.5 g/ha: 62.5 g ai/ha, 100=total damage to plant, 0=no damage to plant, read-out: plant damage rating, Foxtail, Giant; for pest or weed control at 250 g/ha: 250 g ai/ha
In short: as §1

[5] = tested on: barnyardgrass (Echinochloa crus-galli); test: Test G Pre-Emergence Protocol; conditions: Echinochloa crus-galli, pre-emergence, 312 h, evaluated after 13 days; for pest or weed control at 15.625 g/ha: 15.625 g ai/ha, read-out: Barnyard grass damage rating (100=total damage to plant; 0=no damage to plant); for pest or weed control at 62.5 g/ha: 62.5 g ai/ha, 100=total damage to plant, 0=no damage to plant, read-out: plant damage rating, Barnyardgrass; for pest or weed control at 250 g/ha: 250 g ai/ha, read-out: Barnyardgrass damage rating (100=total damage to plant; 0=no damage to plant)
In short: as §1

[6] = tested on: velvetleaf (Abutilon theophrasti); test: Test G Pre-Emergence Protocol; conditions: Abutilon theophrasti, pre-emergence, 312 h, evaluated after 13 days; for pest or weed control at 15.625 g/ha: 15.625 g ai/ha; for pest or weed control at 15.625 g/ha / pest or weed control at 250 g/ha: read-out: Velvetleaf damage rating (100=total damage to plant; 0=no damage to plant); for pest or weed control at 62.5 g/ha: 62.5 g ai/ha, 100=total damage to plant, 0=no damage to plant, read-out: plant damage rating, Velvetleaf; for pest or weed control at 250 g/ha: 250 g ai/ha
In short: as §1

[7] = tested on: ivy-leaved morning glory (Ipomoea hederacea); test: Test G Post-Emergence Protocol; conditions: Ipomoea, post-emergence, 312 h; for pest or weed control at 15.625 g/ha: 15.625 g ai/ha, evaluated after 13 days (100=total damage to plant; 0=no damage to plant), read-out: Morningglory, Ivy-leaved damage rating; for pest or weed control at 62.5 g/ha: 62.5 g ai/ha, read-out: Morningglory, Ivy-leaved damage rating (100=total damage to plant; 0=no damage to plant); for pest or weed control at 62.5 g/ha / pest or weed control at 250 g/ha: evaluated after 13 days; for pest or weed control at 250 g/ha: 250 g ai/ha, read-out: damage to plant, Morningglory, Ivy-leaved (100=total damage to plant; 0=no damage to plant)
In short: (§2)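 Eight days post-sowing, plants received a spray of test compound (acetone/water 50:50, 0.5% Tween 20) at 15.625, 62.5 or 250 g/ha. Glasshouse regime thereafter: 24/16 °C, 14 h light, 65% humidity. Assessment after 13 days on a 0–100 damage scale.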

[8] = tested on: corn (Zea mays); test: Test G Post-Emergence Protocol; conditions: Zea mays, post-emergence, 312 h; for plant injury at 15.625 g/ha: 15.625 g ai/ha, evaluated after 13 days (100=total damage to plant; 0=no damage to plant), read-out: Corn damage rating; for plant injury at 62.5 g/ha: 62.5 g ai/ha, read-out: Corn damage rating (100=total damage to plant; 0=no damage to plant); for plant injury at 62.5 g/ha / plant injury at 250 g/ha: evaluated after 13 days; for plant injury at 250 g/ha: 250 g ai/ha, read-out: damage to plant, Corn (100=total damage to plant; 0=no damage to plant)
In short: as §2

[9] = tested on: redroot pigweed (Amaranthus retroflexus); test: Test G Post-Emergence Protocol; conditions: Amaranthus retroflexus, post-emergence, 312 h; for pest or weed control at 15.625 g/ha: 15.625 g ai/ha, evaluated after 13 days (100=total damage to plant; 0=no damage to plant), read-out: Pigweed, Redroot damage rating; for pest or weed control at 62.5 g/ha: 62.5 g ai/ha, read-out: Pigweed, Redroot damage rating (100=total damage to plant; 0=no damage to plant); for pest or weed control at 62.5 g/ha / pest or weed control at 250 g/ha: evaluated after 13 days; for pest or weed control at 250 g/ha: 250 g ai/ha, read-out: damage to plant, Pigweed, Redroot (100=total damage to plant; 0=no damage to plant)
In short: as §2

[10] = tested on: giant foxtail (Setaria faberi); test: Test G Post-Emergence Protocol; conditions: Setaria faberi, post-emergence, 312 h; for pest or weed control at 15.625 g/ha: 15.625 g ai/ha, evaluated after 13 days (100=total damage to plant; 0=no damage to plant), read-out: Foxtail, Giant damage rating; for pest or weed control at 62.5 g/ha: 62.5 g ai/ha, read-out: Foxtail, Giant damage rating (100=total damage to plant; 0=no damage to plant); for pest or weed control at 62.5 g/ha / pest or weed control at 250 g/ha: evaluated after 13 days; for pest or weed control at 250 g/ha: 250 g ai/ha, read-out: damage to plant, Foxtail, Giant (100=total damage to plant; 0=no damage to plant)
In short: as §2

[11] = tested on: barnyardgrass (Echinochloa crus-galli); test: Test G Post-Emergence Protocol; conditions: Echinochloa crus-galli, post-emergence, 312 h; for pest or weed control at 15.625 g/ha: 15.625 g ai/ha, evaluated after 13 days (100=total damage to plant; 0=no damage to plant), read-out: Barnyardgrass damage rating; for pest or weed control at 62.5 g/ha: 62.5 g ai/ha, read-out: Barnyardgrass damage rating (100=total damage to plant; 0=no damage to plant); for pest or weed control at 62.5 g/ha / pest or weed control at 250 g/ha: evaluated after 13 days; for pest or weed control at 250 g/ha: 250 g ai/ha, read-out: damage to plant, Barnyardgrass (100=total damage to plant; 0=no damage to plant)
In short: as §2

[12] = tested on: velvetleaf (Abutilon theophrasti); test: Test G Post-Emergence Protocol; conditions: Abutilon theophrasti, post-emergence, 312 h; for pest or weed control at 15.625 g/ha: 15.625 g ai/ha, evaluated after 13 days (100=total damage to plant; 0=no damage to plant), read-out: Velvetleaf damage rating; for pest or weed control at 62.5 g/ha: 62.5 g ai/ha, read-out: Velvetleaf damage rating (100=total damage to plant; 0=no damage to plant); for pest or weed control at 62.5 g/ha / pest or weed control at 250 g/ha: evaluated after 13 days; for pest or weed control at 250 g/ha: 250 g ai/ha, read-out: damage to plant, Velvetleaf (100=total damage to plant; 0=no damage to plant)
In short: as §2

Row | SMILES | pest or weed control at 15.625 g/ha [1] | pest or weed control at 62.5 g/ha [1] | pest or weed control at 250 g/ha [1] | plant injury at 15.625 g/ha [2] | plant injury at 62.5 g/ha [2] | plant injury at 250 g/ha [2] | pest or weed control at 15.625 g/ha [3] | pest or weed control at 62.5 g/ha [3] | pest or weed control at 250 g/ha [3] | pest or weed control at 15.625 g/ha [4] | pest or weed control at 62.5 g/ha [4] | pest or weed control at 250 g/ha [4] | pest or weed control at 15.625 g/ha [5] | pest or weed control at 62.5 g/ha [5] | pest or weed control at 250 g/ha [5] | pest or weed control at 15.625 g/ha [6] | pest or weed control at 62.5 g/ha [6] | pest or weed control at 250 g/ha [6] | pest or weed control at 15.625 g/ha [7] | pest or weed control at 62.5 g/ha [7] | other results
1 | CN1C[C@H](c2ccc3c(c2)OCCO3)[C@@H](C(=O)Nc2cccc(F)c2F)C1=O (racemic) [Compound 1490] | 0% | 0% | 0% | 0% | 0% | 10% | 0% | 0% | 0% | 0% | 40% | 90% | 0% | 50% | 80% | 0% | 0% | 0% | 0% | 0% | pest or weed control at 250 g/ha [7]: 30%; plant injury at 15.625 g/ha [8]: 0%; plant injury at 62.5 g/ha [8]: 30%; plant injury at 250 g/ha [8]: 40%; pest or weed control at 15.625 g/ha [9]: 0%; pest or weed control at 62.5 g/ha [9]: 0%; pest or weed control at 250 g/ha [9]: 0%; pest or weed control at 15.625 g/ha [10]: 50%; pest or weed control at 62.5 g/ha [10]: 60%; pest or weed control at 250 g/ha [10]: 60%; pest or weed control at 15.625 g/ha [11]: 50%; pest or weed control at 62.5 g/ha [11]: 60%; pest or weed control at 250 g/ha [11]: 60%; pest or weed control at 15.625 g/ha [12]: 0%; pest or weed control at 62.5 g/ha [12]: 0%; pest or weed control at 250 g/ha [12]: 20%
2 | Cc1nc(F)ccc1[C@@H]1CN(C)C(=O)[C@H]1C(=O)Nc1cccc(F)c1F (racemic) [Compound 1492] | 0% | 0% | 0% | 0% | 0% | 0% | 0% | 0% | 0% | 0% | 20% | 80% | 0% | 20% | 80% | 0% | 0% | 0% | 0% | 0% | pest or weed control at 250 g/ha [7]: 0%; plant injury at 15.625 g/ha [8]: 0%; plant injury at 62.5 g/ha [8]: 0%; plant injury at 250 g/ha [8]: 0%; pest or weed control at 15.625 g/ha [9]: 0%; pest or weed control at 62.5 g/ha [9]: 0%; pest or weed control at 250 g/ha [9]: 0%; pest or weed control at 15.625 g/ha [10]: 0%; pest or weed control at 62.5 g/ha [10]: 40%; pest or weed control at 250 g/ha [10]: 60%; pest or weed control at 15.625 g/ha [11]: 0%; pest or weed control at 62.5 g/ha [11]: 30%; pest or weed control at 250 g/ha [11]: 60%; pest or weed control at 15.625 g/ha [12]: 0%; pest or weed control at 62.5 g/ha [12]: 0%; pest or weed control at 250 g/ha [12]: 20%
3 | Cc1cc([C@@H]2CN(C)C(=O)[C@H]2C(=O)Nc2cccc(F)c2F)cnc1Cl (racemic) [Compound 1493] | 0% | 0% | 10% | 0% | 0% | 70% | 0% | 0% | 0% | 60% | 80% | 90% | 40% | 90% | 90% | 0% | 0% | 0% | 0% | 0% | pest or weed control at 250 g/ha [7]: 0%; plant injury at 15.625 g/ha [8]: 10%; plant injury at 62.5 g/ha [8]: 40%; plant injury at 250 g/ha [8]: 80%; pest or weed control at 15.625 g/ha [9]: 0%; pest or weed control at 62.5 g/ha [9]: 0%; pest or weed control at 250 g/ha [9]: 0%; pest or weed control at 15.625 g/ha [10]: 40%; pest or weed control at 62.5 g/ha [10]: 60%; pest or weed control at 250 g/ha [10]: 60%; pest or weed control at 15.625 g/ha [11]: 40%; pest or weed control at 62.5 g/ha [11]: 70%; pest or weed control at 250 g/ha [11]: 80%; pest or weed control at 15.625 g/ha [12]: 0%; pest or weed control at 62.5 g/ha [12]: 0%; pest or weed control at 250 g/ha [12]: 0%
